Assay results published in ChEMBL document CHEMBL1201862, “PubChem BioAssay data set” (2004).
Activity calls are given as the source filed them.

Legend:
[1] = target: T1, DNA repair protein RAD52 homolog (Homo sapiens, UniProt P43351); assay type: functional, biochemical
T1 sequence (P43351 whole entry): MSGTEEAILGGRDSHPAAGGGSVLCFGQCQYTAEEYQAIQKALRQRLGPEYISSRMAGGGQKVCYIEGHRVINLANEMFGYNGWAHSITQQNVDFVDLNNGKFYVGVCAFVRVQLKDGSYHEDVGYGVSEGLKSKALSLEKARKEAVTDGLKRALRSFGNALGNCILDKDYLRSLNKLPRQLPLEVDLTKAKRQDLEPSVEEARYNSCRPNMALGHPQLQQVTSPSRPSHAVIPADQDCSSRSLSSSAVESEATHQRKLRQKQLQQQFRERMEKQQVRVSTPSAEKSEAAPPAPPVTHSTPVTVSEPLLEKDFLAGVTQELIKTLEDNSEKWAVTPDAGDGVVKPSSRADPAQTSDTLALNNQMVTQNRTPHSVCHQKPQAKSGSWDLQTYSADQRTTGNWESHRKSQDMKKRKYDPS

[2] = microbe, parasite or virus in culture; assay type: functional; conditions: Mycobacterium tuberculosis
[3] = fluconazole-exposed Candida albicans growth modulators – fluorescence, retest, confirmation (AID 2467); assay type: functional, cell-based
[4] = NIH-3T3 fibroblast cytotoxicity, dose response, cytotoxicity control, cell-based, fluorescence, Alamar Blue, secondary assay (AID 2327); assay type: functional;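 further: NIH-3T3 mouse fibroblasts cultured with fluconazole at 8 µg/mL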
Vero = experiment: cells; assay type: functional; conditions: Chlorocebus sabaeus
[5] = loss of viability in HepG2 cells – cell-based, CellTiter-Glo, cherry-picked, cytotoxicity control for Shn3 inhibitor project, dose response (AID 624134); assay type: functional
[6] = non-specific 3'UTR reporter inhibition in Clone20-Shn3RL – cell-based, Renilla luciferase, cherry-picked, counter-screen for Shn3 inhibitor project, dose response (AID 624133); assay type: functional
[7] = reduction of Shn3 3'UTR-driven luciferase in osteoblasts – cell-based, Clone20 osteoblasts, firefly luciferase, cherry-picked, dose response (AID 624132); assay type: functional;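 further: firefly luciferase luminescence from reporter carrying the Shn3 3'UTR in osteoblasts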
Paired box protein Pax-8 = Paired box protein Pax-8 (Homo sapiens, UniProt Q06710); experiment: PAX8 transcriptional activity inhibition in RMG-I – RMG-I cells, luciferase, cherry-pick, dose response (AID 687027); assay type: functional, cell-based;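 further: luciferase reporter driven by Pax8 target thyroperoxidase promoter measured by SteadyGlo luminescence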
[8] = OVCAR8 cell viability loss – plate reader, dry powder samples, PAX8 project, dose response (AID 743197); assay type: functional, cell-based; conditions: OVCAR-8
[9] = P. falciparum Dd2 growth inhibitors, dose response, SYBR Green, cherry-picked samples (AID 1159567); assay type: functional, cell-based

Chain of Paired box protein Pax-8 (Q06710 whole entry): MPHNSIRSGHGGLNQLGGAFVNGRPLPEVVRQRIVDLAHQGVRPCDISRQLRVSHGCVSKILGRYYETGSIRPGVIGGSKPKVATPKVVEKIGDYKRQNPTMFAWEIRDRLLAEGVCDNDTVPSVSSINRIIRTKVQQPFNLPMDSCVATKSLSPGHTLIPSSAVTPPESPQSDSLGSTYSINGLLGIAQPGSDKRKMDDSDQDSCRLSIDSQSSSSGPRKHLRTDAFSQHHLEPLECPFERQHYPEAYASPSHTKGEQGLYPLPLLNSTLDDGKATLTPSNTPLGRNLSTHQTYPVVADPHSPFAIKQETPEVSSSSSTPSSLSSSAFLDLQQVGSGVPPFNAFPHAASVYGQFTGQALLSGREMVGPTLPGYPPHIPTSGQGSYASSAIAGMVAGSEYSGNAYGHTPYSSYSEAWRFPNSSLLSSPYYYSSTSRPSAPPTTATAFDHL

Question: For `CCN(CC)CCN1CCn2c3c(c4cc(C)ccc42)CCCC31` (configuration not stated), which AC50 [1] is on record?
Answer: Its AC50 is 17.6 µM (active).

Question: Which CC50 [2] does the source give for `CCC(=O)N1c2ccc(S(=O)(=O)CCC(=O)N3CCn4c3nc3ccccc34)cc2CC1C` (configuration not stated) here?
Answer: Its CC50 is > 40 µM (active).

Question: What about the EC50 [3] of the same molecule?
Answer: Its EC50 is 4.5 µM (active).

Question: What about the EC50 [4] of the same molecule?
Answer: Its EC50 is 42.9 µM (active).

Question: For `CCc1ccc(NCc2ccc(OC)c(Cn3ccnc3)c2)cc1`, which CC50 [2] is on record?
Answer: Its CC50 is 24.2 µM (active).

Question: With `Cc1cccc(C(=O)Nc2cccc(S(=O)(=O)NCc3ccco3)c2)c1` as the molecule, how does the CC50 (Vero) read?
Answer: The CC50 was 23.6 µM (active).

Question: Which results are given for `c1ccc(CN2CCN(c3ncnc4c3[nH]c3ccccc34)CC2)cc1`?
Answer: AC50 [5]: 31.4 µM (active); AC50 [6]: 5.4 µM (active); AC50 [7]: 2.06 µM (active)

Question: What does the source list for `C=C1C(=O)OC2CC1C(OC(C)=O)CC(C)=CCCC(C)=CCCC2(C)O` (configuration not stated)?
Answer: AC50 [5]: 15.1 µM (active); AC50 [6]: 4.19 µM (active); AC50 [7]: 0.91 µM (active)

Question: Which AC50 (Paired box protein Pax-8) does the source give for `COc1cccc(S(=O)(=O)N(C)C[C@H]2OCc3ccccc3-c3c(n(C)c4ccccc34)C(=O)N([C@H](C)CO)C[C@H]2C)c1` here?
Answer: Its AC50 is 9.53 µM (active).

Question: What about the AC50 [8] of the same molecule?
Answer: Its AC50 is > 70 µM (inactive).

Question: Which results are given for `Cc1ccc(S(=O)(=O)N(C)C[C@@H]2OCCCC[C@H](C)Oc3ccc(NS(=O)(=O)c4cccs4)cc3C(=O)N([C@H](C)CO)C[C@H]2C)cc1`?
Answer: AC50 (Paired box protein Pax-8): 6.6 µM (active); AC50 [8]: > 70 µM (inactive)

Question: For `CC(=O)Nc1cccc(-c2cc(N3CCN(CCO)CC3)n3nccc3n2)c1`, which AC50 [1] is on record?
Answer: The AC50 was 27.6 µM (active).

Question: With `COc1ccc(S(=O)(=O)N(C)C[C@H]2OCCCC[C@@H](C)Oc3ccc(NS(=O)(=O)c4c(C)noc4C)cc3C(=O)N([C@H](C)CO)C[C@H]2C)cc1` as the molecule, how does the AC50 (Paired box protein Pax-8) read?
Answer: The AC50 was 7.76 µM (active).

Question: And the AC50 [8]?
Answer: The AC50 was 66 µM (active).

Question: For `C[C@H](CO)N1C[C@H](C)[C@H](CN(C)Cc2ccc(C(F)(F)F)cc2)OCCCC[C@H](C)Oc2ccc(NC(=O)c3ccccc3)cc2C1=O`, which AC50 (Paired box protein Pax-8) is on record?
Answer: Its AC50 is 9.33 µM (active).

Question: What about the AC50 [8] of the same molecule?
Answer: Its AC50 is 43.7 µM (active).

Question: For `CN(C)CCCNc1nc2cc(-c3cnn(C)c3)sc2c(=O)n1C`, which AC50 [1] is on record?
Answer: The AC50 was 10.2 µM (active).

Question: For `Cc1ccccc1S(=O)(=O)N1[C@H](CO)[C@@H](c2ccc(C#CC3CC3)cc2)[C@@H]1C#N`, which AC50 [9] is on record?
Answer: The AC50 was 4.33 µM (active).

Question: Which AC50 [9] does the source give for `CC(C)(C)[S@+]([O-])N1Cc2cc(C(=O)NCCN3CCCCC3)nc(-c3cccc(-c4ccc(C#N)cc4)c3)c2[C@@H]1CCO` here?
Answer: The AC50 was 9.22 µM (active).

Question: With `COc1ccccc1CNC(=O)C[C@H]1C[C@H]2c3cc(NC(=O)Cc4ccncc4)ccc3O[C@H]2[C@@H](CO)O1` as the molecule, how does the AC50 [9] read?
Answer: The AC50 was 4.52 µM (active).

Question: For `C[C@@H]1CN([C@H](C)CO)C(=O)c2c(c3ccccc3n2C)-c2ccccc2CO[C@@H]1CN(C)Cc1cccc(F)c1`, which AC50 [9] is on record?
Answer: The AC50 was 3.45 µM (active).

Question: For `COc1cccc(CNC(=O)c2cc3c(c(-c4cccc(-c5ccncc5)c4)n2)[C@@H](CCO)N([S@+]([O-])C(C)(C)C)C3)c1`, which AC50 [9] is on record?
Answer: Its AC50 is 4.32 µM (active).
